Source: ChEMBL document CHEMBL1201862, “PubChem BioAssay data set” (2004)
Activity calls are given as the source filed them.

How the values were obtained:
[1] = target: Cytochrome P450 2D6 (Homo sapiens, UniProt P10635); test: qHTS Assay for Inhibitors and Substrates of Cytochrome P450 2D6. [Related pubchem assays: 410 ]; format: ADME; settings: read-out: Potency
[2] = target: Glyceraldehyde-3-phosphate dehydrogenase (Homo sapiens, UniProt P04406)
[3] = target: T1, Bcl-2-related protein A1 (Mus musculus, UniProt Q07440); test: Bfl-1 inhibitors blocking BH3 peptide binding, confirmation, biochemical, TR-FRET, mouse Bfl-1 (AID 621);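 also: TR-FRET binding of GST-Bfl-1 to FITC-labelled Bid peptide via terbium antibody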
T1 sequence (Q07440 whole entry): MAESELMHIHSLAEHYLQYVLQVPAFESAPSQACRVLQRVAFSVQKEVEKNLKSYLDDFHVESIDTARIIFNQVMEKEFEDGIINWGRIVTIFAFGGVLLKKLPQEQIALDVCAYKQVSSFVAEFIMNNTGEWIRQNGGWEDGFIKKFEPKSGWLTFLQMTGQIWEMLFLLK

[4] = target: T1, Bcl-2-related protein A1; test: Bfl-1 binding inhibitors, SAR follow-up, biochemical, fluorescence polarization (AID 1070)
[5] = target: T2, Mucolipin-3 (Homo sapiens, UniProt Q8TDD5); test: Dose response cell-based high-throughput screening assay for agonists of the transient receptor potential channel ML3 (TRPML3). [Related pubchem assays: 1526, 1424, 1448 ]; format: functional
T2 sequence (Q8TDD5 whole entry): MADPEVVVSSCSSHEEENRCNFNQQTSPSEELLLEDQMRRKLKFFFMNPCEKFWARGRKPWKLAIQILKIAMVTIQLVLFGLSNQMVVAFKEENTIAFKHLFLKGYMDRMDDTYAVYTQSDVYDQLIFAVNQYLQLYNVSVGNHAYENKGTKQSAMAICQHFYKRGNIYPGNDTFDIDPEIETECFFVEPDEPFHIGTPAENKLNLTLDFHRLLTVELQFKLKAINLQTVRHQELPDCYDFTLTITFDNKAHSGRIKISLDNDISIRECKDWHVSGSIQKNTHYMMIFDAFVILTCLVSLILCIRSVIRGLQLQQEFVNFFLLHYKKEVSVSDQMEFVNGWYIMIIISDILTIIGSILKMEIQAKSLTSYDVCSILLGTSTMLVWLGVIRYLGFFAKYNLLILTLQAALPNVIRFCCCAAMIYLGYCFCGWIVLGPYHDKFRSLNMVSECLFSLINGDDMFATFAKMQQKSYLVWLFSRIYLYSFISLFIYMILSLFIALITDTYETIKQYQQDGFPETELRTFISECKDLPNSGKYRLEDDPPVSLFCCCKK

[6] = target: Ion channel NompC (Danio rerio, UniProt Q7T1G6); test: Fluorescence counterscreen assay for TRPML3 agonists: dose response cell-based high-throughput screening assay to identify agonists of the transient receptor potential channel N1 (TRPN1). [Related pubchem assays: 1526, 1424, 1448 ]; format: functional
[7] = inhibitors of intracellular T. cruzi replication, confirmation, NIH3T3 host cells, beta-gal luminescence (AID 2044); format: functional, cell-based;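 also: intracellular parasites grown in NIH/3T3 mouse fibroblasts as host cells; luminescent beta-galactosidase reporter signal from transgenic T. cruzi replicating inside host cells; inhibitors lower the luminescence signal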
[8] = cytotoxicity toward NIH3T3 fibroblasts, dose response, counter-screen, cell-based, ATP luminescence, mouse fibroblasts (AID 2010); format: functional;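 also: cells exposed to compound for about 90 hours before reading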
[9] = target: T3, Lytic switch protein BZLF1 (Epstein-Barr virus (strain B95-8) (HHV-4) (Human herpesvirus 4), UniProt P03206); test: EBV ZTA inhibitors, dose response, counter-screen for EBNA-1 inhibitor project, biochemical, fluorescence polarization, Epstein-Barr virus, 1536-well (AID 2377); parameters: species or system human gammaherpesvirus 4;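 also: fluorescence polarization of Cy5-labelled ZRE DNA probe bound by purified Zta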
T3 sequence (P03206 whole entry): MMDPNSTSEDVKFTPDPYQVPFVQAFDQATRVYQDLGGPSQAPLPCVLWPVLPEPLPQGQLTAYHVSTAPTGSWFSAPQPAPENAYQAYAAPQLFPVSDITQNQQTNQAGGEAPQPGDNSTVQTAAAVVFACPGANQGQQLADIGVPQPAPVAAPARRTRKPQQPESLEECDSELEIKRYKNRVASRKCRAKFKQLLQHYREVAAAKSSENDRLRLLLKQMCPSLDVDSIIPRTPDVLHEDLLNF

[10] = target: T4, Epstein-Barr nuclear antigen 1 (Epstein-Barr virus (strain B95-8) (HHV-4) (Human herpesvirus 4), UniProt P03211); test: EBNA-1 inhibitors, dose response, biochemical, fluorescence polarization, 1536-well (AID 2381); parameters: species or system human gammaherpesvirus 4;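 also: fluorescence polarization of a Cy5 DNA probe bound by EBNA-1 protein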
T4 sequence (P03211 whole entry): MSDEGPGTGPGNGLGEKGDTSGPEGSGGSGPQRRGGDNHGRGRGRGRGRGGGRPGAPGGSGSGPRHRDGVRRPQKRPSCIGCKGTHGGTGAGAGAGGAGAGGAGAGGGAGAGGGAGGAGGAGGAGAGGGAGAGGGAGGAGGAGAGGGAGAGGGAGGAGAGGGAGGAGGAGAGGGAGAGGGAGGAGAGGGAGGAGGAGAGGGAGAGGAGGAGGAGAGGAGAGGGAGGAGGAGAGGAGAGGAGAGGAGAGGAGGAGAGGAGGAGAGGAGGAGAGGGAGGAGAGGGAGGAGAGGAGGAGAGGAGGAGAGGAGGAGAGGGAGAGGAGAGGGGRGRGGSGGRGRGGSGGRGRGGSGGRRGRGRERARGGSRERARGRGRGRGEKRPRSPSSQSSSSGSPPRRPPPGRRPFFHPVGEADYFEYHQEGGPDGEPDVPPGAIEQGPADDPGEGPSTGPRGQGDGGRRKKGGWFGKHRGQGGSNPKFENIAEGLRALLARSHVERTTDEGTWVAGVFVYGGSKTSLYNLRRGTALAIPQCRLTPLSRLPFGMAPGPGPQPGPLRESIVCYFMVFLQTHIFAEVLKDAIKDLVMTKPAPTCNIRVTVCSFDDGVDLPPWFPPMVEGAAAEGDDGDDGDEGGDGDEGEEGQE

[11] = target: Genome polyprotein (dengue virus type 2, UniProt P29990); test: Dengue-2 NS5 methyltransferase inhibitors, primary screen, biochemical, confirmation dose response (AID 588689); format: functional
[12] = target: T5, Protein RecA (Mycobacterium tuberculosis, UniProt P9WHJ3); test: Fluorescence Cell-Free Homogeneous Dose Retest to Identify Inhibitors of RecA-Intein Splicing Activity. [Related pubchem assays (depositor defined):AID2097, AID2223, AID489010, AID492950]; format: functional
T5 sequence (P9WHJ3 whole entry): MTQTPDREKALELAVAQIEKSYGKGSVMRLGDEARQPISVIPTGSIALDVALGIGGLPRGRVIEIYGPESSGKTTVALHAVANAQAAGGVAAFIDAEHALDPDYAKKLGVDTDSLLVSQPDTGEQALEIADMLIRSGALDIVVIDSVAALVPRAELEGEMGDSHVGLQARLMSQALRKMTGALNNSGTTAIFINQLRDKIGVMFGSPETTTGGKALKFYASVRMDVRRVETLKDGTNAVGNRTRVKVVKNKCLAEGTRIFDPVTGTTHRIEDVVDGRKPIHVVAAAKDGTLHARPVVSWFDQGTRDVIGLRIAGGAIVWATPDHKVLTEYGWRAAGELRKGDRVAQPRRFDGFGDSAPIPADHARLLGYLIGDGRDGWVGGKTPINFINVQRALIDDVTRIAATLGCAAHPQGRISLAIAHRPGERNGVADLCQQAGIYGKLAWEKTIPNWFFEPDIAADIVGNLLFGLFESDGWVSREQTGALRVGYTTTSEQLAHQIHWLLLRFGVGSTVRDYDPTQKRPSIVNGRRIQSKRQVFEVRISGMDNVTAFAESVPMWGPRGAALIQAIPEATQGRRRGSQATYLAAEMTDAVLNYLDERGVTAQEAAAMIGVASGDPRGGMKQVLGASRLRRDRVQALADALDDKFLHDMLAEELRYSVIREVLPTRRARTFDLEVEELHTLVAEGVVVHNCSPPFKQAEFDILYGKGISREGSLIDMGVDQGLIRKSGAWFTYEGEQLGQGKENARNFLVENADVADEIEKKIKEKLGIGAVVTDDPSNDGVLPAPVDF

[13] = target: T6, Replicative DNA helicase DnaB (Mycobacterium tuberculosis, UniProt P9WMR3); test: DnaB intein splicing inhibitors, dose response, biochemical, cell-free fluorescence (AID 449749); format: functional
T6 sequence (P9WMR3 whole entry): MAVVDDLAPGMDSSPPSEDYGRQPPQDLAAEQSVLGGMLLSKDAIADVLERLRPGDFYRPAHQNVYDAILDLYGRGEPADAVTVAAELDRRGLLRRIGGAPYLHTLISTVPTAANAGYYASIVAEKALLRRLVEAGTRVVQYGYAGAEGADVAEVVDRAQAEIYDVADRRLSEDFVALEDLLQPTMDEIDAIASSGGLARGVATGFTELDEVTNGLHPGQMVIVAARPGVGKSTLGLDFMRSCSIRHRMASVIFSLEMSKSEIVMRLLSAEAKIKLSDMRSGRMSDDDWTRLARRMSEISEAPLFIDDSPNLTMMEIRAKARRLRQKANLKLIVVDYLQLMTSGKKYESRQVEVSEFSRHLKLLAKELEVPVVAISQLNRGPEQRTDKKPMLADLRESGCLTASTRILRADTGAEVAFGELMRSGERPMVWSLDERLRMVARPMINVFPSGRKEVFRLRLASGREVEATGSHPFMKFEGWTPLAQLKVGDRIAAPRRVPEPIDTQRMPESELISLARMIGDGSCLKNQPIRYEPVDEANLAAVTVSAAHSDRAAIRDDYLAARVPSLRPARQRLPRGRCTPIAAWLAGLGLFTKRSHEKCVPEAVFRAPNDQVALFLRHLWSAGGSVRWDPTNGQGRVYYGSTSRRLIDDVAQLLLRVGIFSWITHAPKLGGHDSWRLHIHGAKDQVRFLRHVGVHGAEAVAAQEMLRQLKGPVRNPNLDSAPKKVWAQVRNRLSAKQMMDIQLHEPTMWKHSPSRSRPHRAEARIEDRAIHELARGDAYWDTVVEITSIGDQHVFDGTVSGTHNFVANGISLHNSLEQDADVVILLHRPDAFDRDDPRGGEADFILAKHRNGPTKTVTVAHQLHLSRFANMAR

[14] = target: Voltage-gated inwardly rectifying potassium channel KCNH2 (Homo sapiens, UniProt Q12809); test: hERG protection from proarrhythmic block, potency, dose response, cell-based, thallium flux (AID 2121); format: ADME
Voltage-gated inwardly rectifying potassium channel KCNH2, sequence (Q12809 whole entry): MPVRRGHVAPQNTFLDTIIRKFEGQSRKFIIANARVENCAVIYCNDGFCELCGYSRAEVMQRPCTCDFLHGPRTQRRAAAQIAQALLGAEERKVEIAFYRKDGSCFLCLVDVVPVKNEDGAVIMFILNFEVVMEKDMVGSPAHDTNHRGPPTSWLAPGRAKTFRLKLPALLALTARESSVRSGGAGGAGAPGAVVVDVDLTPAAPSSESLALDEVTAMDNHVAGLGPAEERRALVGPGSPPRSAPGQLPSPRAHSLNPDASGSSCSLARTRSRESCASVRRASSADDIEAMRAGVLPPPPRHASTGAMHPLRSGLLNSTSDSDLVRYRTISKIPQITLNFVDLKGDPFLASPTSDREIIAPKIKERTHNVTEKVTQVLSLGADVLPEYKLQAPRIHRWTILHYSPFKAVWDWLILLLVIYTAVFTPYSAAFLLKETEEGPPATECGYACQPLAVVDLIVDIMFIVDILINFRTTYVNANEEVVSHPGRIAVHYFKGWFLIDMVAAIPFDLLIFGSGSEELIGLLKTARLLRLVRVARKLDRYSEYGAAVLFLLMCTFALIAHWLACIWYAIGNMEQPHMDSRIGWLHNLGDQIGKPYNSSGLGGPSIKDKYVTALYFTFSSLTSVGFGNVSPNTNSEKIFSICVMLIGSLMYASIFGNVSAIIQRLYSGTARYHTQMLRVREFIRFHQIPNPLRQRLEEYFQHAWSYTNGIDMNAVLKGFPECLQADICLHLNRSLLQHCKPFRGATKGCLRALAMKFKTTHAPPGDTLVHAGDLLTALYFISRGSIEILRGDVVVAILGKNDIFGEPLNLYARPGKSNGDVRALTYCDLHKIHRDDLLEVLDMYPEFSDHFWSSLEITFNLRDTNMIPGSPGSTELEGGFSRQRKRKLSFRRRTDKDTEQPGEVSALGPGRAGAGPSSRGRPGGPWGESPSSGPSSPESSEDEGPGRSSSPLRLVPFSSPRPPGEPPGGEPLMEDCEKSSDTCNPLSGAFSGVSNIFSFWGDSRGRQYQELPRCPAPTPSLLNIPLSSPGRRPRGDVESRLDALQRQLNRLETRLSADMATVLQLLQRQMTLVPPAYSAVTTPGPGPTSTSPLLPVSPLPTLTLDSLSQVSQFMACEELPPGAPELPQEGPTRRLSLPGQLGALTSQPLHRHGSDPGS

Ion channel NompC, sequence (Q7T1G6 whole entry): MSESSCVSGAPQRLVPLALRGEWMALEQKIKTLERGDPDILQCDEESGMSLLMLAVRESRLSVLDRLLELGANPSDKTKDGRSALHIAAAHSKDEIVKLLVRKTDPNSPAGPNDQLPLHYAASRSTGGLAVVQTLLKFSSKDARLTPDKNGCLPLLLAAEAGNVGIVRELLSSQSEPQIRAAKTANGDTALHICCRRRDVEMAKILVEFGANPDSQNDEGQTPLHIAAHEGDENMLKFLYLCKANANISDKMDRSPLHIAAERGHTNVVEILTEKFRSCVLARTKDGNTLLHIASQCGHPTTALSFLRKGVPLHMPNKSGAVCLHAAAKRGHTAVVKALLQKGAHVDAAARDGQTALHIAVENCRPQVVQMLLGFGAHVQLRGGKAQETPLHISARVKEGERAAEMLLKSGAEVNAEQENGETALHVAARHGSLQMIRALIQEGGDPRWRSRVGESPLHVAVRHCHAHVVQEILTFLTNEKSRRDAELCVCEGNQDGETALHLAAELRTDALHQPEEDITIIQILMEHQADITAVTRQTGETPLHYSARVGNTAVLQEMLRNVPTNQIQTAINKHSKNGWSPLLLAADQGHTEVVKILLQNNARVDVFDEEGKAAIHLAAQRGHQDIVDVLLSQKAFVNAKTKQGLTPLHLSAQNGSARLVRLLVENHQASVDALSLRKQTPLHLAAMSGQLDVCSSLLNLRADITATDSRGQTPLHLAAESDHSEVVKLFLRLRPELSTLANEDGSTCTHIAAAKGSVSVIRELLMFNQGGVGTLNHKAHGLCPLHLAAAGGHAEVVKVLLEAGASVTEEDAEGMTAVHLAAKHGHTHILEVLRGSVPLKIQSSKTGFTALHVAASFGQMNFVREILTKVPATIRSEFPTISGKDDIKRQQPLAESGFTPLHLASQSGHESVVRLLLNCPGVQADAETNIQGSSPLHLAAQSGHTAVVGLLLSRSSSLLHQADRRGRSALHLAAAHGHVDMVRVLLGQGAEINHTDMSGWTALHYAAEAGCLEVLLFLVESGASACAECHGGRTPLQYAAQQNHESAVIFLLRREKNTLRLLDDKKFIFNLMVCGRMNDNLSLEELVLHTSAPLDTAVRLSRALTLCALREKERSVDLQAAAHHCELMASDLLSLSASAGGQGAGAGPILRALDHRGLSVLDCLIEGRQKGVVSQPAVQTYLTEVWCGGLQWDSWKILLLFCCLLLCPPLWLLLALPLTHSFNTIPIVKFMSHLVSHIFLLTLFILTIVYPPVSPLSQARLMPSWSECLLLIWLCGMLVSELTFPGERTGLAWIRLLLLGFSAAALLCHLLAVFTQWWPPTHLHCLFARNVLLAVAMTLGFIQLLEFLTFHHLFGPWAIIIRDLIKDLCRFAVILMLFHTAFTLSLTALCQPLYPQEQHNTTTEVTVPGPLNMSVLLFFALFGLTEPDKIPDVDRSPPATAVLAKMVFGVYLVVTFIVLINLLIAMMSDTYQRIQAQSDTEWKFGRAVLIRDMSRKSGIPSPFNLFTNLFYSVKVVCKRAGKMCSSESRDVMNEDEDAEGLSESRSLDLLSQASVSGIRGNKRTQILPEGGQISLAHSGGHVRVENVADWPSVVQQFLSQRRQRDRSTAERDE
Glyceraldehyde-3-phosphate dehydrogenase, sequence (P04406 whole entry): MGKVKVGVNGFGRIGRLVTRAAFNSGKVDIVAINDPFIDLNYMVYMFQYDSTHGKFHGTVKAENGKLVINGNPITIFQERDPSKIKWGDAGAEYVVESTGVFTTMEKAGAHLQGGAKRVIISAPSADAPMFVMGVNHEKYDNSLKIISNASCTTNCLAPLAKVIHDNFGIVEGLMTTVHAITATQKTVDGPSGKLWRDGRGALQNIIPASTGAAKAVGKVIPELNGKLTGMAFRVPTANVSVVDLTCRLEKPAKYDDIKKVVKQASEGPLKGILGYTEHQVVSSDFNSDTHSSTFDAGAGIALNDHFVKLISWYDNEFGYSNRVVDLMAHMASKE
Genome polyprotein, sequence (P29990 2492-3391 limits assumed): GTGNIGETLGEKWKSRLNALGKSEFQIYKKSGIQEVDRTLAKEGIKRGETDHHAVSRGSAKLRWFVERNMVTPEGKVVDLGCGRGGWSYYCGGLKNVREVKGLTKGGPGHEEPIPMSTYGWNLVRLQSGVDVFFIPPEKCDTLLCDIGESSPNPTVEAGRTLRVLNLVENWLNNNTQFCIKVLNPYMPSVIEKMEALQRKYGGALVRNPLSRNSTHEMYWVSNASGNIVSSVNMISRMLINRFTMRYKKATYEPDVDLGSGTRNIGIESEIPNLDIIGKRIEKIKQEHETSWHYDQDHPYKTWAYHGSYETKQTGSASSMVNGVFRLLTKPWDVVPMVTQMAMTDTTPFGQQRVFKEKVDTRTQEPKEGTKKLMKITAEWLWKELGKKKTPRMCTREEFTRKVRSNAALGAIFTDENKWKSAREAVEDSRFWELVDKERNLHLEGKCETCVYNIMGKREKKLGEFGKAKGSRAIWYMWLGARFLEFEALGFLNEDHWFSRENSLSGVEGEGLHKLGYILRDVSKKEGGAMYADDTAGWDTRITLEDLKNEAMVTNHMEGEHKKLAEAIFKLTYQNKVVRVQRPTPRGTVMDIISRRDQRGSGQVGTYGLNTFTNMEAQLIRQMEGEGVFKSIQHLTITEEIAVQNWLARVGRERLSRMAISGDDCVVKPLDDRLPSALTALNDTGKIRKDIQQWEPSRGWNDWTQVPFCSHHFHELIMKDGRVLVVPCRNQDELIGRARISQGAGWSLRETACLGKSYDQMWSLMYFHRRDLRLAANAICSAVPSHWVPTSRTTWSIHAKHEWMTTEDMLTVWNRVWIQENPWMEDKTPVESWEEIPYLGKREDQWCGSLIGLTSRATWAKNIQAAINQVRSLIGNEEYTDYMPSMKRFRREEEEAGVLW
Cytochrome P450 2D6, sequence (P10635 whole entry): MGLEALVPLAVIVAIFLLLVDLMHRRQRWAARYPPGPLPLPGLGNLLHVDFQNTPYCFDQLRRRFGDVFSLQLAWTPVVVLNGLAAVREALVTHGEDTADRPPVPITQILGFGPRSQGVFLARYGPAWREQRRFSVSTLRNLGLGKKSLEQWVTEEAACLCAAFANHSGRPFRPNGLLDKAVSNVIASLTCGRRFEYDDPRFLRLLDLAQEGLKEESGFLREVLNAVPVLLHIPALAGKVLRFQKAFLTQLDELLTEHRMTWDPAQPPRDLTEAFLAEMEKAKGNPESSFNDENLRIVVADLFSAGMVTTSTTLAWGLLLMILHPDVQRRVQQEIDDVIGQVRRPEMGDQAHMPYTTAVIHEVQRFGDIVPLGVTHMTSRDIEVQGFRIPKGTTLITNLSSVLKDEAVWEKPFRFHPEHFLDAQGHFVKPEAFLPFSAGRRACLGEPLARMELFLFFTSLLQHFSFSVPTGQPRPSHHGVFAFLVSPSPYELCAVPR

For `CCCCCCCCCCCCC/C=C\[C@H](O)[C@H](N)CO`, the AC50 [1] was 12.6 µM (inconclusive).

For `O=C1C(Cl)=C(N2CCN(CCO)CC2)C(=O)N1c1ccc(Cl)c(Cl)c1`, the IC50 [2] was > 100 µM (not active), the IC50 [3] was 0.59 µM (active) and the IC50 [4] was 0.556 µM (active).

With `O=C1CN(S(=O)(=O)c2ccc(F)cc2)CC(=O)N1CCc1ccccc1` the EC50 [5] was 6.15 µM (active) and the EC50 [6] was > 29.9 µM (not active).

In the case of `c1ccc2c(C[n+]3csc4ccccc43)cccc2c1`, the EC50 [5] is reported as > 29.9 µM (not active), the EC50 [6] is reported as > 29.9 µM (not active) and the EC50 [7] is reported as 0.898 µM (active). For the same molecule, the EC50 [8] was 22.3 µM (active).

In the case of `O=C(Nc1ccc(-c2nc3ccccc3o2)cc1)c1ccc(N2C(=O)C3C4C=CC(C4)C3C2=O)cc1` (stereo not given), the IC50 [9] is reported as > 111 µM (not active) and the IC50 [10] is reported as 5.35 µM (active).

In the case of `O=C1C(Cl)=C(N2CCOCC2)C(=O)N1c1ccccc1Cl`, the IC50 [11] is reported as 23.3 µM (active), the IC50 [2] is reported as > 10 µM (inconclusive) and the IC50 [3] is reported as 5.83 µM (active). For the same molecule, the EC50 [12] was 2.09 µM (active), the IC50 [4] was > 100 µM (not active) and the AC50 [13] was 5.28 µM (active).

With `CCOC(=O)Cc1csc(NC(=S)NC(=O)C(C)(C)C)n1` the EC50 [14] was 2.51 µM (active).

For `CC1CN(C(=S)NC(=O)c2ccc(Cl)cc2)CC(C)O1` (stereo not given), the EC50 [14] was 5.66 µM (active).
